Experimental data as given in US6180634A, “Combination therapy for the treatment of AIDS” (priority 1998, dated 2001).
Like-named read-outs stand apart in the source and are kept apart here.

Experiments:
[1] = administration to humans, plasma concentrations (general statements); assay type: in vivo, human
Text: Compound (b) is preferably selected from the group consisting of Indinavir, Ritonavir, and pharmaceutically acceptable salts thereof, and is most preferably Indinavir or a pharmaceutically acceptable salt or ester thereof. Particularly preferred is the composition in which (a) is the sulfate salt of Compound A and (b) is the sulfate salt of Indinavir. It has been discovered that the foregoing compounds of (b), when employed in combination with Compound A, can increase the plasma concentration of Compound A to a level having substantial antiviral activity.

[2] = Pharmacokinetic Study of Compound A in Healthy Human Males (Example 10); assay type: in vivo; settings: 20 mg single oral dose, suspension, fasted
Protocol: A double-blind, single-rising dose, alternating two-panel, four-period, placebo-controlled study was conducted for Compound A in healthy adult males in the fasted state. Single doses of 20, 50, 100, 200, 400, 800 and 1200 mg of Compound A, or placebo, were administered as an oral suspension of the sulfate salt form of Compound A in sterile water. Each subject received increasing single oral doses of Compound A or placebo during each of the four treatment periods in alternate panels. Panel A dosage levels were 20, 100, 400 mg, and 400 mg with food. Panel B dosage levels were 50, 200, 800 and 1200 mg. For each period, 6 subjects received Compound A and 2 subjects received placebo as allocated by a randomized schedule. In Panel A, subjects who received 400 mg of Compound A also received 400 mg of Compound A with food. The safety of the subjects was monitored prior and subsequent to dosing by clinical adverse event reporting, measurement of vital signs, physical examinations, blood and urine laboratory safety tests, and ECGs. Plasma concentrations of Compound A were determined predose and at 0.5, 1, 1.5, 2, 3, 4, 6, 10, 12, 24, 32 and 48 hours following each single dose in each period, using a reverse-phase HPLC column switching method with fluorescence detection.

wild-type HIV-1 = test: microbe, parasite or virus in culture; assay type: cell-based
[3] = Pharmacokinetic Study in Healthy Human Males of Compound A in Combination with Indinavir with and without Fasting (Example 12); assay type: in vivo; settings: co-administered with Indinavir, with food vs without food
Protocol: All of the subjects received the regimen once in the fasted state and once with a high-fat breakfast. The two single-dose treatments (fasted, fed) were administered in randomized crossover fashion, separated by one week. For treatments with food a breakfast consisting of two eggs, two strips of bacon, toast with two pats of butter (2×12.5 g), 120 g of fried potatoes and 240 ml of whole milk were consumed in no more than 15 minutes, and the test medication was administered within 5 minutes after completion of the breakfast.
All of the doses of Compound A were administered as the sulfate salt form of Compound A. All of the Compound A doses were tablets containing 200 mg of Compound A. Other ingredients in the tablets included microcrystalline cellulose (Avicel PH 101), mannitol SD 200, croscarmellose sodium, hydroxypropyl cellulose and magnesium stearate. […]
(§1) The safety of the subjects was monitored prior and subsequent to dosing by clinical adverse event reporting, measurement of vital signs, physical examinations, blood and urine laboratory safety tests, and ECGs. Plasma concentrations of Compound A were determined predose and at 0.5, 1, 1.5, 2, 3, 4, 6, 8, 12, 16, 20, 24, 30, 36 and 48 hours following each single dose in each period, using a reverse-phase HPLC column switching method with fluorescence detection.

[4] = Pharmacokinetic Study of Compound A Alone and in Combination with Indinavir in Healthy Human Males (Example 11); assay type: in vivo
Protocol: as §1, with “A double-blind, single-rising dose, alternating two-panel, four-period, placebo-controlled study was conducted for Compound A alone and in combination with Indinavir in healthy adult males in the fasted state. […] All of the doses of Compound A were administered as the sulfate salt form of Compound A. All of the Compound A doses were oral suspensions of the sulfate salt form in sterile water, except that the 600-mg doses administered to Panel B in the fourth period were tablets. Indinavir was administered in the form of CRIXIVAN® capsules. The” for “The”

[5] = Compound A in combination with Indinavir
[6] = 200 mg Compound A + 800 mg Indinavir relative to 200 mg Compound A alone

| Structure (SMILES) | effect of Indinavir on inter-individual variation of Compound A plasma concentrations [1, 5] | effect of Indinavir on plasma concentrations of Compound A [1, 5] | inter-individual variation in the plasma levels ([1]; humans, Compound A alone, vs Indinavir) | plasma concentration increase with successively higher doses ([1]; humans, dose proportionality) | plasma concentrations of Compound A ([1]; humans, relative to comparable doses of Indinavir) | plasma concentrations [2] | IC95 (wild-type HIV-1; Human immunodeficiency virus 1, wild-type HIV-1, Cell Spread Assay, read-out: CIC95) [nM] | potency relative to Indinavir (wild-type HIV-1; wild type HIV-1, in vitro) | Compound A plasma levels, fed versus fasted [3] | AUC increase (times higher) [4, 6] | C8 hrs increase (times higher) [4, 6] [×] | Cmax increase (times higher) [4, 6] | AUC increase (fold higher) ([4]; 600 mg Compound A + 800 mg Indinavir relative to Compound A alone) | IC95 (wild-type HIV-1; Human immunodeficiency virus 1, read-out: CIC95) [nM] |
| --- | --- | --- | --- | --- | --- | --- | --- | --- | --- | --- | --- | --- | --- | --- |
| CC(C)(C)NC(=O)[C@@H]1CN(Cc2cc3ccccc3o2)CCN1C[C@@H](O)C[C@@H](Cc1ccccc1)C(=O)N[C@H]1c2ccccc2C[C@H]1O [Compound A, N-(2(R)-hydroxy-1(S)-indanyl)-2(R)-phenylmethyl-4-(S)-hydroxy-5-(1-(4-(2-benzo[b]furanylmethyl)-2(S)-N'-(t-butylcarboxamido)-piperazinyl))-pentaneamide] | markedly reduces inter-individual variation | substantially increase the plasma concentrations | significant inter-individual variation | greater than proportional increases in plasma concentrations | very low plasma concentrations | below the assay quantification limit | 25 | approximately two-fold greater potency than Indinavir | higher Compound A plasma levels | about 30 × | ~46 | about 19 × | about 18 fold | – |
| CC(C)(C)NC(=O)[C@@H]1CN(Cc2cccnc2)CCN1C[C@@H](O)C[C@@H](Cc1ccccc1)C(=O)N[C@H]1c2ccccc2C[C@H]1O [Indinavir, N-(2(R)-hydroxy-1(S)-indanyl)2(R)-phenylmethyl-4-(S)-hydroxy-5-(1-(4-(3-pyridylmethyl)-2(S)-N'-(t-butylcarboxamido)-piperazinyl))-pentaneamide, reference compound] | – | – | – | – | – | – | – | – | – | – | – | – | – | 50 |
